Data as given in patent publication US12059471B2, “Complex” (UNITED IMMUNITY, CO., LTD., priority 2020, dated 2024).
In the oligonucleotide strings, read from the 5' end, every base follows the letter of its sugar. An asterisk marks phosphorothioate; unmarked linkages are phosphodiester. Other units and linkages are bracketed, terminal groups are in braces. A string of capitals states the bases alone. {Chol-TEG} = cholesterol attached through a triethylene glycol linker; d = 2'-deoxy (DNA)

Assay: Complexation evaluation by size exclusion chromatography (SEC/HPLC)
Type: physicochemical
Settings: Chol-CpG 20 uM, SEC, UV 260 nm, PBS
Protocol: As complexation evaluation of the Chol-CpG (K3)/CHP nanogel complex sample prepared in Test Example 1-5, size exclusion chromatography (SEC) was carried out. The conditions were as follows. Column: G3000SWXL (Tosoh Corporation), 7.8 mm×150 mm, detector: UV (260 nm), column detection temperature: 35° C., injection amount: 20 uL, flow rate: 0.5 mL/min, eluent: PBS (pH: 7.4). Using PBS as an eluent, the eluate was detected at 260 nm, which was an absorption wavelength specific to CpG, which was a nucleic acid adjuvant.
As the complexation evaluation of the Chol-CpG (D35)/CHP nanogel complex sample prepared in Test Example 2-3, size exclusion chromatography (SEC) was carried out in the same manner as in Test Example 1-6.

## Chol-CpG (D35): Cholesterol linked to 5′-end of D35 CpG oligonucleotide (SEQ ID NO 2) through a triethylene glycol linker (DNA {Chol-TEG}-dG*dGdTdGdCdAdTdCdGdAdTdGdCdAdGdGdGdG*dG*dG)
CHP nanogel 40 uM, molar ratio nanogel:Chol-CpG 2:1
  complexed ratio with the nanogel: ~100%
Molar ratio nanogel:Chol-CpG 1:1
  complexed ratio with the nanogel: about 90%
